Reference: PubChem BioAssay (NCI)
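Five compound concentrations were applied to cells in 96-well plates for 48 hours; endpoints were derived by simple linear interpolation of the resulting dose-response curve. TGI: concentration producing complete growth inhibition.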

What was measured:
Test in all cases: NCI anticancer screen, dose series, 48 h
[1] = system: HCT-116 colon
[2] = system: EKVX NSCLC
[3] = system: HL-60(TB) leukemia
[4] = system: HOP-62 NSCLC
[5] = system: 786-0 renal
[6] = system: MOLT-4 leukemia
[7] = system: RXF-631 renal
[8] = system: NCI-H226 lung
[9] = system: TK-10 renal
[10] = system: HCT-15 colon
[11] = system: KM12 colon
[12] = system: NCI-H23 lung
[13] = system: LOX IMVI melanoma
[14] = system: IGROV1 ovarian
[15] = system: UACC-257 melanoma
[16] = system: OVCAR-5 ovarian
[17] = system: HCC-2998 colon
[18] = system: SR leukemia
[19] = system: M14 melanoma
[20] = system: UACC-62 melanoma
[21] = system: LXFL 529 NSCLC
[22] = system: SF-539 CNS
[23] = system: KM20L2 colon
[24] = system: NCI-H460 lung
[25] = system: UO-31 renal
[26] = system: DMS 273 small cell lung
[27] = system: DLD-1 colon
[28] = system: SK-OV-3 ovarian
[29] = system: OVCAR-3 ovarian
[30] = system: HT29 colon
[31] = system: A549 NSCLC
[32] = system: SN12C renal
[33] = system: OVCAR-4 ovarian
[34] = system: XF 498 CNS
[35] = system: SNB-19 CNS
[36] = system: OVCAR-8 ovarian
[37] = system: NCI-H522 lung
[38] = system: ACHN renal
[39] = system: SF-268 CNS
[40] = system: MALME-3M melanoma
[41] = system: M19-MEL melanoma
[42] = system: DMS 114 small cell lung
[43] = system: SF-295 CNS
[44] = system: SK-MEL-28 melanoma
[45] = system: RXF 393 renal
[46] = system: HOP-18 NSCLC
[47] = system: CCRF-CEM leukemia
[48] = system: U251 CNS
[49] = system: SNB-75 CNS
[50] = system: CAKI-1 renal
[51] = system: SNB-78 CNS
[52] = system: K-562 leukemia
[53] = system: SK-MEL-2 melanoma
[54] = system: SW-620 colon
[55] = system: COLO 205 colon
[56] = system: HOP-92 NSCLC
[57] = system: RPMI-8226 leukemia
[58] = system: SK-MEL-5 melanoma
[59] = system: A498 renal

Measured: TGI

Cc1ccc(Nc2nc(C)c(C(/C=C/c3ccc4c(c3)OCO4)=N/Nc3ccc([N+](=O)[O-])cc3[N+](=O)[O-])s2)c([N+](=O)[O-])c1
56.2 µM: [34]
> 100 µM: [1] | [2] | [4] | [5] | [6] | [7] | [9] | [10] | [11] | [12] | [13] | [14] | [15] | [16] | [17] | [18] | [19] | [21] | [22] | [23] | [24] | [25] | [26] | [27] | [28] | [29] | [30] | [31] | [32] | [33] | [35] | [36] | [38] | [39] | [40] | [41] | [42] | [43] | [44] | [45] | [47] | [48] | [49] | [50] | [51] | [52] | [53] | [54] | [55]
17.8 µM: [20]
90.1 µM: [8]
63.7 µM: [46]
37.4 µM: [37]
95 µM: [3]

O=C(O)C1CC2CC(=O)C1C2 (stereo not drawn)
> 100 µM: [1] | [2] | [3] | [4] | [5] | [6] | [7] | [8] | [9] | [56] | [57] | [11] | [12] | [13] | [14] | [15] | [16] | [18] | [19] | [20] | [21] | [22] | [23] | [24] | [25] | [26] | [27] | [28] | [29] | [30] | [31] | [32] | [33] | [34] | [35] | [36] | [37] | [38] | [39] | [40] | [41] | [43] | [44] | [45] | [46] | [58] | [59] | [47] | [48] | [49] | [50] | [51] | [52] | [53] | [54] | [55]

COC1(Cc2ccccc2)C(=O)c2ccccc2N1C(C)=O (stereo not drawn)
> 100 µM: [1] | [2] | [3] | [4] | [5] | [6] | [7] | [56] | [10] | [57] | [11] | [12] | [14] | [15] | [17] | [18] | [19] | [20] | [21] | [22] | [23] | [24] | [25] | [26] | [27] | [28] | [29] | [30] | [31] | [32] | [33] | [34] | [35] | [36] | [38] | [41] | [42] | [43] | [44] | [45] | [46] | [59] | [47] | [48] | [49] | [50] | [51] | [52] | [53] | [54] | [55]

COc1cc2c(Cc3cc(OCc4ccccc4)ccc3N)nccc2c(OC)c1OC
> 10 µM: [1] | [2] | [3] | [4] | [5] | [6] | [7] | [8] | [9] | [56] | [10] | [57] | [11] | [12] | [13] | [14] | [15] | [16] | [17] | [18] | [19] | [20] | [21] | [22] | [23] | [24] | [25] | [26] | [27] | [28] | [29] | [30] | [31] | [32] | [34] | [35] | [36] | [37] | [38] | [39] | [40] | [41] | [42] | [43] | [44] | [45] | [46] | [58] | [47] | [48] | [49] | [51] | [52] | [53] | [54] | [55]
